Values of other authors, collected in patent publication US20240374497A1, “COMPOSITIONS COMPRISING OR2AT4 AGONISTS” (Coty Inc., priority 2021, published 2024).

Assays:
[1] = tested on: human epidermal keratinocyte; settings: in vitro; selective activation of OR2AT4
human epidermis = settings: ex vivo; selective activation of OR2AT4
[2] = target: T1, olfactory receptor OR2AT4 (Homo sapiens, UniProt A6NND4); settings: receptor expressed in the epithelium of human hair follicles
T1 sequence (A6NND4 1-320): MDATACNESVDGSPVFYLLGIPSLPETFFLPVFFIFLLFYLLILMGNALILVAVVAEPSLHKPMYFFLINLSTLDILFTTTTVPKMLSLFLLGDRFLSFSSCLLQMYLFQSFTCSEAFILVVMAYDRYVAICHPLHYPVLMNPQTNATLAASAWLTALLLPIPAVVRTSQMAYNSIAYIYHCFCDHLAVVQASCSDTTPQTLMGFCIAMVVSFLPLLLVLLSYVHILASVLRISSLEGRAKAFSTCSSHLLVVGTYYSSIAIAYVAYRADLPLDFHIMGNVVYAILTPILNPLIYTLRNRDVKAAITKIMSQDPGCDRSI

Structure (SMILES) | human epidermal keratinocyte migration and proliferation [1] | wound re-epithelialization (human epidermis) | effect on the olfactory receptor OR2AT4 [2] | hair growth ex vivo (human hair follicles) | apoptosis (human hair follicles; ex vivo) | production of growth factor IGF-1 (human hair follicles; ex vivo)
CC1=CCC(CCC(C)C(C)O)C1(C)C (stereo not drawn) [Sandalore®] | promotes human epidermal keratinocyte migration and proliferation | promotes |  |  |  | 
CC1=CCC(CCC(C)C(C)O)C1(C)C (stereo not drawn) [sandal pentanol, 3-methyl-5-(2,2,3-trimethylcyclopent-3-en-1-yl)pentan-2-ol] |  |  | stimulatory effect | prolongs hair growth | decreasing apoptosis | increasing the production of growth factor IGF-1
